{"source": "patent US20060223779A1", "about": "“Method of screening for inhibitors of human Fatty Acid-CoA Ligase 4” (priority 2000, published 2006)", "key": {"[1]": {"tested_on": "FACL4/COX-2 double stable cells", "assay": "Cell survival of FACL4/COX-2 double stable cells after TNFα or A23187", "type": "cell-based, human", "conditions": "TNFα 1 ng/ml or A23187 5 μM, 72 hr, n=3", "description": "(§1) FIG. 5: Enzymatic “sinks” for free arachidonic acid protect against TNFα_ and calcium ionophore_mediated cell killing. (A) Determination of cell survival. The cells were induced (+Pon) or not (−Pon) for 24 hr, and TNFα (1 ng/ml) or the calcium ionophore A23187 (5 μM) was added, and the cells were incubated for another 72 hr. The surviving fraction was determined and is plotted relative to that of the same line without TNFα or A23187 treatment. Ctl denotes control cells harboring an empty vector, while FACL4/COX-2 denotes the double stable line. (B) Measurement of the free AA. The FACL4/COX-2 cells were prelabeled with [^3H] AA, induced, and stimulated with A23187 (5 μM), and [^3H] AA release was measured at the indicated time intervals. The values are from one experiment that is representative of four independent determinations.\nStable cell lines. The ecdysone inducible system (Invitrogen) was used to construct stable lines over-expressing human FACL4, COX-2, COX-2 mutant, and both FACL4 and COX-2. […] The cDNAs were cloned into pIND(SP1) (Neomycin^r). The cDNA constructs, or the empty vector pIND(SP1) were transfected into EcR293 cells, which were then selected in 400 μg/ml geneticin and 400 μg/ml zeocin. A number of single colonies were screened for over-expression of FACL4, COX-2 wild type, and COX-2 mutant by immunoblotting against anti-FACL4 (See Y. Cao et al., 467 FEBS Lett. 263-267 (2000)), and anti-COX-2 antibodies (a gift from Dr. Jacques Maclouf), and by measurement of the CoA ligase activity for FACL4 (See D. B. Wilson et al., 257 J. Biol. Chem. 3510-3515 (1992)), or the PGE2 secretion for COX-2 wild type (ELISA assay, Assay Design, Inc.). The double stable line was generated by stably transfecting the COX-2 stable cells with another pIND(SP1)-FACL4 cDNA construct, in which the FACL4 cDNA was cloned into a pIND(SP1) (hygromycin^r) vector. The cells were selected in 400 μg/ml geneticin, 400 μg/ml zeocin, and 50 μg/ml hygromycin B. The positive colonies were screened as described above.\n(§2) Cell survival. Cell viability was determined with the crystal violet staining (See M. Hayakawa et al., 268 J. Biol. Chem. 11290-11295 (1993)."}, "FACL4/COX-2 cells": {"tested_on": "FACL4/COX-2 cells", "assay": "[3H] arachidonic acid release after A23187 (pulse-chase)", "type": "cell-based, human", "conditions": "A23187 5 μM", "description": "as §1\nArachidonic acid release. Cells were plated on 6 well-plates precoated with poly-L-lysine at 8×10^5 cells per well. They were then prelabeled with [^3H] AA (0.4 μCi/ml medium) (91.8 Ci/mmol, 100 μCi/ml, NEN) for 24 hr. After a wash, serum-free DMEM supplemented with 1% BSA (fatty acid free) was added. […] The AA release stimulated by A23187 was calculated by subtracting the released AA by unstimulated cells, from that by A23187-stimulated counterparts."}, "293 cells [2]": {"tested_on": "293 cells", "assay": "Apoptosis by Cell Death Detection ELISA in 293 cells", "type": "cell-based, human", "conditions": "44 hr", "description": "(§3) FIG. 3: Arachidonic acid induces apoptosis via activation of caspase 3. (A) Determination of cell survival. AA was added to 293 cells at the indicated concentrations and the surviving fraction of cells was determined after 44 hr. The values shown are relative to the viability of cells that were not exposed to AA. (B) Increased apoptosis in cells exposed to AA. Cells were treated with AA (300 μM) or palmitic acid (300 μM) under the same conditions as in A, and then apoptosis was detected with an ELISA. The mean values from triplicate determinations are shown. […] The 293 cells were treated with AA (300 μM; +AA) or vehicle alone (−AA) for 44 hr. The nuclei were stained with DAPI, and DNA strand breaks in individual cells were detected with a fluorescent TUNEL assay. The upper panels are the same field of cells (−AA) photographed under UV (left panels) and FITC filters (right panels). The lower panels illustrate apoptotic cells (+AA). The magnification is 80×. (D) Immunostaining with an anti-active caspase 3 antibody. Upper panels, control cells (−AA); lower panels, cells exposed to 300 μM AA. Left panels, DAPI staining; right panels, immunostaining with an antibody selective for active caspase 3. The magnification is 100×. […] The 293 cells were preincubated with caspase inhibitors (including DMQD, a caspase 3 inhibitor, and YVAD, a caspase 1 and 4 inhibitor (Peptide Institute)) for 1 hr at the indicated concentrations, AA (300 μM) was added, and apoptosis was determined 44 hr later. The values represent the means from triplicate determinations.\n(§4) Cell Death Detection ELISA. Cells were plated on 96 well-plates at 1×10^4 cells per well. AA was applied and apoptotic death was determined after 44 hr with the Cell Death Detection ELISA (Boehringer Mannheim)."}, "293 cells [3]": {"tested_on": "293 cells", "assay": "Cell survival (crystal violet staining) in 293 cells", "type": "cell-based, human", "conditions": "293 cells, increasing exogenous AA concentration, 44 hr", "description": "as §3, §2"}, "caspase 3": {"tested_on": "caspase 3", "assay": "Caspase 3-like activity in AA-treated cells", "type": "cell-based", "conditions": "not shown"}, "COX-2 stable 293 cells": {"tested_on": "COX-2 stable 293 cells", "assay": "Apoptosis in stably transfected 293 cells with inducible COX-2 over-expression", "type": "cell-based, human", "description": "(A) Conditional expression level of FACL4 and COX-2 in stably transfected lines. Cells were treated with (+) or without (−) ponasterone (1 μg/ml) for 48 hr, and Western blotting was carried out with anti-FACL4 and anti-COX-2 antibodies, respectively. The loading was normalized with an anti-β actin antibody (ICN Biomedicals). […] The 293 cells stably transfected with an empty control vector (Ctl), FACL4 cDNA, COX-2 cDNA, and both FACL4 and COX-2 cDNAs were uninduced (−Pon) or induced for over-expression (+Pon) as in A. AA (300 μM) was added after 24 hr of induction and apoptosis was determined 44 hr later. […] The plot is a comparison of the relative apoptosis levels among the stable lines and is representative of three independent experiments. The values shown are the averages of triplicate determinations. […] Cells were uninduced (−Pon) or induced for over-expression as above. […] COX inhibitors were administered 6 hr later as indicated. AA (300 μM) was then added after 2 hr and apoptosis was determined 44 hr later. The plot is prepared as in B, and is a representative result from three independent experiments, in which triplicates were performed. Wt=wild-type, Mut=mutant, Met=50 μM 6-methoxy-2-naphthyl acetic acid, Indo=10 μM indomethacin. […] The COX-2, FACL4/COX-2 stable and control cells carrying an empty vector were induced for 48 hr, washed and incubated with 20 μM AA at 37° C. for 30 min. The amount of PGE2 synthesized was determined by ELISA. […] (E) The levels of free AA in the stable lines. The [^3H]\nas §4\nStable cell lines. The ecdysone inducible system (Invitrogen) was used to construct stable lines over-expressing human FACL4, COX-2, COX-2 mutant, and both FACL4 and COX-2. […] The cDNAs were cloned into pIND(SP1) (Neomycin^r). The cDNA constructs, or the empty vector pIND(SP1) were transfected into EcR293 cells, which were then selected in 400 μg/ml geneticin and 400 μg/ml zeocin. […] The double stable line was generated by stably transfecting the COX-2 stable cells with another pIND(SP1)-FACL4 cDNA construct, in which the FACL4 cDNA was cloned into a pIND(SP1) (hygromycin^r) vector. The cells were selected in 400 μg/ml geneticin, 400 μg/ml zeocin, and 50 μg/ml hygromycin B. The positive colonies were screened as described above."}, "293 cells [4]": {"tested_on": "293 cells", "assay": "Lipid peroxidation assay (MDA and 4-HNE) in 293 cells", "type": "cell-based, human", "description": "FIG. 6: Cells exposed to AA show increased lipid peroxidation; apoptosis is blocked by antioxidants and Bcl-2. (A) The level of lipid oxidation products. The 293 cells were treated with AA at the indicated concentrations for 48 hr. The data presented are from one experiment that is representative of two independent experiments. […] Antioxidants were applied to 293 cells at the indicated concentration for 1 hr, and then AA (200 μM) was added. Apoptosis was determined after 44 hr and is shown relative to the level in control cells. […] Cells were transfected with the empty vector (Ctl) or with a cDNA encoding Bcl-2 and then were exposed to AA (300 μM). The level of apoptosis was determined after 44 hr. The values shown indicate the apoptosis level relative to control cells, and represent the means of triplicate determinations (P<0.05). The expression of Bcl-2 was detected by Western blotting. (D) The level of Bcl-2 expression in the stable cells. The stably transfected cells were induced, or not, with ponasterone for 24 or 48 hr. Cell lysates were blotted with an antibody to Bcl-2. Normalization was performed with an anti-β-actin antibody.\nLipid peroxidation assay. Cells were plated and treated with AA for 48 hr. […] The cellular malondialdehyde (MDA) and 4-hydroxynonenal (4-HNE) levels were determined with the lipid peroxidation assay kit (Calbiochem)."}}}
{"molecule": "CNc1ccc2oc(C[C@H]3O[C@@]4(CC[C@H]3C)O[C@H]([C@H](C)C(=O)c3ccc[nH]3)[C@H](C)C[C@H]4C)nc2c1C(=O)O", "note": "[A23187]", "values": [{"measurement": "surviving fraction, induced cells", "setting": "[1]; FACL4/COX-2 double stable cells induced with ponasterone", "value": 67.8, "unit": "%"}, {"measurement": "surviving fraction, uninduced cells", "setting": "[1]; FACL4/COX-2 double stable cells without induction", "value": 37.8, "unit": "%"}, {"measurement": "AA release to the medium in response to A23187, control cells", "setting": "FACL4/COX-2 cells; control cells", "value": "released a large amount of AA"}, {"measurement": "AA release to the medium in response to A23187, over-expression of FACL4 and COX-2", "setting": "FACL4/COX-2 cells; induced FACL4/COX-2 cells", "value": "completely abolished"}]}
{"molecule": "CCCCC/C=C\\C/C=C\\C/C=C\\C/C=C\\CCCC(=O)O", "note": "[AA, Arachidonic acid]", "values": [{"measurement": "apoptosis (mono- and oligo-nucleosomes) over the control", "setting": "293 cells [2]; 293 cells, 300 μM", "value": 18, "unit": "fold"}, {"measurement": "cell survival, % of the control", "setting": "293 cells [3]", "value": 23, "unit": "%"}, {"measurement": "maximal increase in caspase 3-like activity compared to control cells", "setting": "caspase 3", "value": "~4.5", "unit": "fold"}, {"measurement": "time of peak caspase 3-like activity", "setting": "caspase 3", "value": 17, "unit": "h"}, {"measurement": "fold-increase in apoptosis after fatty acid treatment", "setting": "COX-2 stable 293 cells; 200 μM", "value": 8.5, "unit": "fold"}, {"measurement": "reduction of fatty acid-induced apoptosis by inducing COX-2 over-expression", "setting": "COX-2 stable 293 cells; COX-2 over-expression induced, n=3", "value": 36.7, "unit": "%"}, {"measurement": "formation of lipid peroxidation products", "setting": "293 cells [4]; 293 cells exposed to AA, 48 hr", "value": "enhanced formation of malondialdehyde and 4-hydroxy-2(E)-nonenal"}]}
{"molecule": "z-DMQD-fmk", "values": [{"measurement": "blocking of AA-induced apoptosis by caspase inhibitor", "setting": "293 cells [2]; 293 cells preincubated 1 hr with inhibitor, AA 300 μM", "value": "significantly blocked apoptosis"}, {"measurement": "effect on generation of peroxidized lipids", "setting": "293 cells [4]; AA-exposed cells, not shown", "value": "did not block the generation of peroxidized lipids"}]}
